Assay results published in ChEMBL document CHEMBL1156695, “The novel primaquine derivatives of N-alkyl, cycloalkyl or aryl urea: synthesis, cytostatic and antiviral activity evaluations” (Eur J Med Chem, 2008).
Activity calls are given as the source filed them. The calls are words filed in the database; no cut-off is given here.

Each molecule was assayed on Vaccinia virus (assay: Antiviral activity against vaccinia virus infected in HEL cells assessed as reduction of virus-induced cytopathogenicity). Conditions: Orthopoxvirus vaccinia.
Format: functional, organism-based

| SMILES | Activity |
| --- | --- |
| COc1cc(NC(C)CCCNC(=O)NC(c2ccccc2)c2ccccc2)c2ncccc2c1 (stereo not given) | inactive |
| COc1cc(NC(C)CCCNC(=O)NCC2CCCCC2)c2ncccc2c1 (stereo not given) | inactive |
| COc1cc(NC(C)CCCNC(=O)NC2CCCC2)c2ncccc2c1 (stereo not given) | inactive |
| COc1cc(NC(C)CCCNC(=O)N(C2CCCCC2)C2CCCCC2)c2ncccc2c1 (stereo not given) | inactive |
| COc1cc(NC(C)CCCNC(=O)n2nnc3ccccc32)c2ncccc2c1 (stereo not given) [PRIMAQUINE BENZOTRIAZOLIDE] | inactive |
| CCN(CC)C(=O)NCCCC(C)Nc1cc(OC)cc2cccnc12 (stereo not given) | inactive |
| COc1cc(NC(C)CCCNC(=O)NCCc2ccccc2)c2ncccc2c1 (stereo not given) | inactive |
| COc1cc(NC(C)CCCNC(=O)NCc2ccncc2)c2ncccc2c1 (stereo not given) | inactive |
| COc1cc(NC(C)CCCNC(=O)NC2CCCCC2)c2ncccc2c1 (stereo not given) | inactive |
| COc1cc(NC(C)CCCNC(=O)NCc2ccccc2)c2ncccc2c1 (stereo not given) | inactive |
